The values below come from patent US20260022118A1, “HETEROCYCLIC COMPOUNDS AS NRAS INHIBITORS” (Board of Regents, The University of Texas System, priority 2023, published 2026).

The structures appear in SMILES notation.

The target in one assay is NRAS G12D C118S (Homo sapiens (Human), UniProt P01111, C118S/G12D). Kind of assay: NRas G12D Surface Plasmon Resonance (SPR) binding assay. The settings on record: Avi-tagged biotinylated NRAS G12D C118S on streptavidin chip, 25° C., 1:1 kinetic or steady-state fit. How it is done:
NRas G12D Surface Plasmon Resonance (SPR) Binding Assay
This Example illustrates that exemplary compounds and salts thereof described herein bind to NRAS G12D as measured by surface plasmon resonance (SPR).
Two liters of 1.03× running buffer (1.03×HBS-P+pH 7.4, containing 0.0103 M HEPES, 0.1545 M NaCl, 0.0515% v/v Surfactant P20 (Cytiva®, BR100671); 5.15 mM MgCl2 (Invitrogen, AM9530G); 0.515 mM TCEP, pH 8.0 (GoldBio®, TCEP25)) was prepared and filter sterilized using a 0.22 μm filter. A 1-L volumetric flask was filled partway with this buffer. A 30-mL volumetric flask was used to measure 30 mL of 100% DMSO (Sigma Aldrich®, 41639-100ML) which was added to the 1-L flask. The solution in the 1-L flask was brought up to 1 L with 1.03× buffer, resulting in a 1.0× assay running buffer containing 1.0×HBS-P+, 5 mM MgCl2, […], and 3% DMSO. Remaining 1.03× buffer was used for preparation of samples and immobilization running buffer.
Samples were prepared in a standard conical-bottomed 384-well microplate by adding 2 μL 10 mM DMSO cpd stock to each well, followed by 8 μL DMSO. A control compound was selected based off of its relatively “fast” kinetics that could be fitted by 1:1 kinetic fitting, as well as by steady-state fitting. Control wells for periodic injection to assess protein activity throughout the assay were also assembled, by diluting 10 mM compound 1:30 in DMSO, then adding 20 μL to the appropriate wells, such that the final concentration of compound would be 10 μM, and the final concentration of DMSO would be 3%. A Biomek™ FXP Laboratory Automation Workstation was used to stamp 20 μL DMSO into all sample wells—minus the control wells—according to the plate map, and then serially dilute 1:3 by mixing and aspirating 10 μL, delivering into the 20 μL of DMSO in the next well, resulting in 10-point serial dilution curves. A Biotek™ Multiflo EL406 Washer Dispenser was used to deliver 80 μL of 1.03× buffer to the compound plate. The plate was mixed 10× by FX, then a final dilution was performed by stamping 18 μL from the compound plate into a 384-well deep-well plate that had also been previously filled with 102 μL 1.03× buffer via the Multiflo. The solution in the deep-well plate was mixed 10× by FX, then sealed with a 384-well microplate foil from Cytiva® (Cytiva® BR100577) and placed on an orbital shaker for 30 minutes at 1000 RPM to ensure complete mixing of the DMSO solution in the buffer. A solvent correction curve was also prepared by making a 4% DMSO solution in 1.03× buffer and diluting in 1.03× buffer such that there were eight solutions of decreasing DMSO concentrations resulting in a high DMSO concentration of 4% and a low concentration of 2% DMSO.
Immobilization running buffer was prepared in a 200-mL volume by diluting 1.03× running buffer prepared above to 1.0×. A Cytiva® Streptavidin chip (Cytiva®, 29104992) was docked into a Biacore™ S200 instrument, and the instrument was then primed three times into the immobilization running buffer. A protein stock of Avi-tagged NRAS G12D C118S was prepared in-house and biotinylated using the Bulk BirA: BirA biotin-protein ligase bulk reaction kit from Avidity (Avidity®, Bulk BirA). Upon completion of the biotinylation reaction, Amicon® ultra 0.5-mL Centrifugal Filters with a MWCO of 3 k Da (Millipore® UFC500396) were used to reduce the free biotin concentration below 0.1 μM in the protein sample over the course of eight desalting cycles, according to the manufacturer's protocol. Resulting protein concentration was not measured directly as an accurate protein concentration is not required for immobilizing protein on the chip surface; however, a theoretical yield of ≤1.5 mg/mL was estimated based off of retained volumes during the desalting process. Reagents for immobilization were prepared as instructed in the Biacore™ 5200 Control Software Immobilization Wizard, including solutions of 1 M NaCl in 50 mM NaOH, and 1 M NaCl in 50 mM NaOH and 50% isopropyl alcohol. […]

In assay [1] the test system is THP-1 cells expressing G12D (NRAS G12D). Kind of assay: Inhibition of NRAS G12D-mediated phosphorylation of ERK (AlphaLISA p-ERK1/2) in THP-1 cells. Type of assay: cell-based. As to conditions: Homo sapiens, THP-1, 2 h, 2 hours incubation, HBSS with 0% or 10% FBS, p-ERK1/2 (Thr202/Tyr204) AlphaLISA, read-out: pERK THP-1 IC50. In a few lines:
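THP-1 cells expressing NRAS G12D, seeded in HBSS with 0% or 10% FBS, were exposed to test compound (1% DMSO final) for 2 h. p-ERK1/2 (Thr202/Tyr204) read by AlphaLISA SureFire Ultra. IC50 from curves normalized to no-inhibitor (100%) and 1 μM trametinib (0%) controls.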

Sequence of NRAS G12D C118S (P01111 whole entry G12D/C118S): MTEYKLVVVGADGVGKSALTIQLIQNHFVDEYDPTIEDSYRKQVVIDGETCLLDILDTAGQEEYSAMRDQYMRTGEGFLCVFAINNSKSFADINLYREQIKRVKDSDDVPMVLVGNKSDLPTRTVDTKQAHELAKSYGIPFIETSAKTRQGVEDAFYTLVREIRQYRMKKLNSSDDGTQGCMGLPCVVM

As to `C#Cc1c(F)ccc2cc(O)cc(-c3ncc4c(C5=CC6CCC5CN6)nn(C)c4c3F)c12` (centres unmarked) [Example 42, 4-[3-(2-azabicyclo[2.2.2]oct-5-en-5-yl)-7-fluoro-1-methyl-pyrazolo[4,3-c]pyridin-6-yl]-5-ethynyl-6-fluoro-naphthalen-2-ol], binding at NRAS G12D C118S was characterised by a dissociation constant (Kd) of 2980 nM. Besides, the IC50 in assay [1] was above 10000 nM.
In turn, `C#Cc1c(F)ccc2cc(O)cc(-c3ncc4c(N5CC6CCC5CN6)nn(C)c4c3F)c12` (centres unmarked) [Example 26, 4-(3-(2,5-diazabicyclo[2.2.2]octan-2-yl)-7-fluoro-1-methyl-1H-pyrazolo[4,3-c]pyridin-6-yl)-5-ethynyl-6-fluoronaphthalen-2-ol] yielded a Kd on NRAS G12D C118S of 73.8 nM. Besides, in assay [1], the IC50 amounted to 2070 nM.
The like results for `C#Cc1c(F)ccc2cc(O)cc(-c3ncc4c(N5CC6CCCC(C5)N6)nn(C)c4c3F)c12` [Example 31, 4-[3-(3,9-diazabicyclo[3.3.1]nonan-3-yl)-7-fluoro-1-methyl-pyrazolo[4,3-c]pyridin-6-yl]-5-ethynyl-6-fluoro-naphthalen-2-ol] were, in that order, 3430 nM and 18100 nM.
The like results for `C#Cc1c(F)ccc2cc(O)cc(-c3ncc4c(N5CC6CCC(C5)N6)cn(C5CC5)c4c3F)c12` [Example 85, 4-(3-(3,8-diazabicyclo[3.2.1]octan-3-yl)-1-cyclopropyl-7-fluoro-1H-pyrrolo[3,2-c]pyridin-6-yl)-5-ethynyl-6-fluoronaphthalen-2-ol] were, in that order, 336 nM and 1710 nM.
For `C#Cc1c(F)ccc2cc(O)cc(-c3ncc4c(c3F)n(C)c(=O)n4C3[C@H]4CNC[C@@H]34)c12` (stereo partly drawn) [Example 45, 3-[(1R,5S)-3-azabicyclo[3.1.0]hexan-6-yl]-6-(8-ethynyl-7-fluoro-3-hydroxy-1-naphthyl)-7-fluoro-1-methyl-imidazo[4,5-c]pyridin-2-one], at NRAS G12D C118S, the Kd stood at 9940 nM. Besides, the IC50 in assay [1] is above 10000 nM.
Regarding `C#Cc1c(F)ccc2cc(O)cc(-c3ncc4c(N5C[C@@H]6CC[C@H]5CN6)nn(C)c4c3F)c12` [Example 30, 4-(3-((1S,4S)-2,5-diazabicyclo[2.2.2]octan-2-yl)-7-fluoro-1-methyl-1H-pyrazolo[4,3-c]pyridin-6-yl)-5-ethynyl-6-fluoronaphthalen-2-ol], the Kd at NRAS G12D C118S was found to be 51.9 nM. Further, the IC50 in assay [1] worked out at 1190 nM.
Compound `C#Cc1c(F)ccc2cc(O)cc(-c3nc(OCC(F)(F)F)c4c([C@H]5[C@@H]6CNC[C@@H]65)nn(C5CC5)c4c3F)c12` [Example 67, 4-(3-((1R,5S,6r)-3-azabicyclo[3.1.0]hexan-6-yl)-1-cyclopropyl-7-fluoro-4-(2,2,2-trifluoroethoxy)-1H-pyrazolo[4,3-c]pyridin-6-yl)-5-ethynyl-6-fluoronaphthalen-2-ol] had a Kd at NRAS G12D C118S of 114 nM. Further, the IC50 in assay [1] was 763 nM.
Turning to `C#Cc1c(F)ccc2cc(O)cc(-c3ncc4c(N5CC6CCCC5CN6)nn(C)c4c3F)c12` (centres unmarked) [Example 36, 4-[3-(6,8-diazabicyclo[3.2.2]nonan-6-yl)-7-fluoro-1-methyl-pyrazolo[4,3-c]pyridin-6-yl]-5-ethynyl-6-fluoro-naphthalen-2-ol], at NRAS G12D C118S, the Kd amounted to 4030 nM. For the same compound, the IC50 in assay [1] stood at 12800 nM.
Turning to `C#Cc1c(F)ccc2cc(O)cc(-c3ncc4c(c(C)cn4C4=CC5CCC4CN5)c3F)c12` (centres unmarked) [Example 38, 4-[1-(2-azabicyclo[2.2.2]oct-5-en-5-yl)-4-fluoro-3-methyl-pyrrolo[2,3-c]pyridin-5-yl]-5-ethynyl-6-fluoro-naphthalen-2-ol], the Kd at NRAS G12D C118S amounted to 3990 nM. Also, the IC50 in assay [1] stood at 18300 nM.
The like results for `C#Cc1c(F)ccc2cc(O)cc(-c3nc(OC(C)C)c4c([C@H]5[C@@H]6CNC[C@@H]65)nn(C5CC5)c4c3F)c12` [Example 62, 4-(3-((1R,5S,6r)-3-azabicyclo[3.1.0]hexan-6-yl)-1-cyclopropyl-7-fluoro-4-isopropoxy-1H-pyrazolo[4,3-c]pyridin-6-yl)-5-ethynyl-6-fluoronaphthalen-2-ol] were, in that order, 18.8 nM and 115 nM.
